Data reported in patent publication USRE39096E1, “Treatment of skin disorders” (Hadasit Medical Research Services and Development Company …, priority 1997, dated 2006).
“And” between values parts separate entries of the source, which are not always exact repeats. Equal entries are not always repeated. Where two headings read alike, the source gives them in different places.

Assays:
[1] = system: bovine corneal endothelial cells; test: Incorporation of sulfate, proline, lysine and glycine into ECM of bovine corneal endothelial cells; type: cell-based; settings: eight days after seeding
Description: Corneal endothelial cells were seeded at a confluent density and grown as described in Example 3 above. The cells were cultured with or without Halofuginone in the presence of either Na2^35SO4 (FIG. 4A), ^3H-proline (FIG. 4B), ^14C-lysine (FIG. 4C) or ^14C-glycine (FIG. 4D). Eight days after seeding, the cell layer was dissolved substantially as described in Example 3 above. The underlying ECM was then either trypsinized to determine the effect of Halofuginone on incorporation of labeled material into total protein, substantially as described in Example 3 above, or subjected to sequential digestions with collagenase and trypsin to evaluate the effect of Halofuginone on both collagenase-digestible proteins (CDP) and non-collagenase digestible proteins (NCDP).

Rat mesengial cells = test: Sulfate and glycine incorporation into rat mesengial cell ECM; type: cell-based; settings: for inhibition at 0.05 µg/mL / inhibition at 0.2 µg/mL: Rattus norvegicus; for inhibition at 0.05 µg/mL: 50 ng/ml Halofuginone; for inhibition at 0.2 µg/mL: 200 ng/ml Halofuginone
Description: Rat […] grown to confluency, 24 hours after seeding. The cells were then cultured with or without Halofuginone in the presence of either Na2^35SO4 (FIGS. 5A and 5B) or ^14C-glycine (FIGS. 5C and 5D). Eight days after seeding, the cell layer was dissolved to expose the underlying ECM, washed and digested with collagenase to determine the effect of Halofuginone on CDP proteins, as shown in FIGS. 5A and 5C. The remaining material was digested with trypsin and subjected to β-scintillation counting to determine the effect of Halofuginone on NCDP proteins, as shown in FIGS 5B and 5D.

[2] = system: bovine corneal endothelial cells; test: Sulfate incorporation into ECM of cultured endothelial cells; type: cell-based; settings: FIG. 3
Source text: (§1) As noted above, skin cell hyperproliferation is enabled by the deposition of ECM components. The following examples illustrate the ability of Halofuginone to inhibit such deposition of ECM components, further supporting the use of Halofuginone as a treatment for psoriasis. These examples illustrate the unexpected finding that Halofuginone completely abolishes deposition of all ECM components, and not just collagen, thereby preventing cell proliferation which is enabled by the formation of ECM. Cultures of bovine corneal endothelial cells were established from steer eyes and maintained as previously described [D. Gospodarowicz, et al., Exp. Eye Res., No. 25, pp. 75-99 (1977)]. Cells were cultured at 37° C. in 10% CO2 humidified incubators and the experiments were performed with early (3-8) cell passages.
(§2) For preparation of sulfate-labelled ECM (extra-cellular matrix), corneal endothelial cells were seeded into Swell plates at a confluent density forming, within 4-6 h, a contact inhibited cell monolayer composed of closely apposed, and growth arrested cells. […] To determine the total amount of sulfate labeled material, the ECM was digested with trypsin (25 μg/ml 24 h, 37° C.) and the solubilized material counted in a β-counter.

rats = test: Post-surgical abdominal adhesion formation in rats, Halofuginone in diet as pretreatment; type: in vivo, rat
Description: The experimental method was as follows. Halofuginone was administered in the diet of two groups of rats at a concentration of 5 mg/kg dry feed for 4 days before surgery, as a pretreatment. Two other groups of rats were fed a normal diet and served as control groups. One of the groups of rats fed Halofuginone and one control group then underwent surgery, which was performed as follows. First, the abdomen of the rats was shaved and prepared with iodine and alcohol. The abdominal cavity was entered through a mid-line incision. The small intestine was scraped from the duodenum down to from about 9 to about 10 cm from the cecum, until capillary bleeding occurred. To avoid drying, Hartman's solution at about 37 C. was occasionally dripped on the intestine. After replacement of the intestine into the abdominal cavity, the abdomen was closed in two layers with continuous 00 chromic catgut suture.
In those rats receiving the drug, Halofuginone treatment was continued for 21 days following surgery. At the end of 21 days, the rats were weighed and the number and severity of adhesions were determined according to a double-blind procedure, in which adhesions were classified according to the following grading: 0=no adhesions; I=a thin, filmy, easily separated adhesion; II=several thin adhesions; III=a thick, broad adhesion and IV=several thick adhesions. Clearly, 0 is the least severe and IV is the most severe grade.

[3] = system: bovine corneal endothelial cells; test: Viability and morphology of confluent corneal endothelial cell monolayer; type: cell-based; settings: growth arrested monolayer
Source text: as §1, §2

keloid-derived cells = test: Collagen synthesis in keloid-derived cells ([3H]proline incorporation, collagenase digestion); type: cell-based, human; settings: 24 hours incubation, FIG. 2
Description: A keloid, which had arisen in response to the piercing of the ear for insertion of an earring, was removed from the ear lobe of a person. The keloid tissue was sectioned so that histological studies could be performed. Briefly, the tissue samples were collected into phosphate-buffered saline (PBS) and fixed overnight in 4% paraformaldehyde in PBS at 4° C. Serial 5 um sections were prepared after the samples had been dehydrated in graded ethanol solutions, cleared in chloroform and embedded in Paraplast. Differential staining of collagenous and non-collagenous proteins was performed with 0.1% Sirius red and 0.1% fast green as a counter-stain in picric acid. This procedure stains collagen red [Gascon-Barre, M., et al., J. Histochem. Cytochem., Vol 37, p. 377-381, 1989].
The keloid was removed as described in Example 1 above. The keloid-derived cells were incubated with and without Halofuginone for 24 hours in 0.5 ml glutamine-free DMEM containing 5% FCS (Fetal Calf Serum), ascorbic acid (50 μg/ml), B-aminopropionitrile (50 μg/ml) and 2 μCi of [^3H]proline. At the end of incubation, the medium was decanted and the cells were incubated with or without collagenase for 18 hours, followed by precipitation of proteins by the addition of TCA (trichloroacetic acid). […]

## O=C(CC1NCCCC1O)Cn1cnc2cc(Br)c(Cl)cc2c1=O (centres unmarked) [Halofuginone]
[1]; 3H-proline, both CDP and NCDP, FIG. 4B
  incorporation of proline into ECM: inhibited
[1]; 14C-glycine, both CDP and NCDP, FIG. 4D
  incorporation of glycine into ECM: inhibited
[1]; 14C-lysine, both CDP and NCDP, FIG. 4C
  incorporation of lysine into ECM: inhibited
[1]; Na2 35SO4, both CDP and NCDP, FIG. 4A
  incorporation of sulfate into ECM: inhibited
Rat mesengial cells; ECM produced in the presence of Halofuginone
  microscopic examination of denuded culture dishes (ECM layer): thin or non-existant layer of ECM
Rat mesengial cells; collagenase-digestible proteins, read-out: inhibition of glycine incorporation, CDP proteins
  inhibition at 0.05 µg/mL: ~80%
Rat mesengial cells; non-collagenase digestible proteins, read-out: inhibition of glycine incorporation, NCDP proteins
  inhibition at 0.05 µg/mL: ~80%
Rat mesengial cells; collagenase-digestible proteins, read-out: inhibition of sulfate incorporation, CDP proteins
  inhibition at 0.2 µg/mL: ~30%
Rat mesengial cells; non-collagenase digestible proteins, read-out: inhibition of sulfate incorporation, NCDP proteins
  inhibition at 0.2 µg/mL: ~70%
[2]; 1 μg/ml Halofuginone
  inhibition of sulfate incorporation into ECM: almost complete inhibition
[2]; Bos taurus, Endothelial cell, 0.2 μg/ml Halofuginone
  inhibition at 0.2 µg/mL: 50%
rats; individual rats, Group Number 2 (taken as surgery + Halofuginone 5 mg/kg dry feed, 4 days before and 21 days after surgery)
  Adhesion Score: 0-1 (3×) and 0 (3×) and 1 (2×) and 1-2 (2×)
rats; no surgery, Halofuginone in diet
  adhesions in rats without surgical intervention: None of the rats without surgical intervention
rats; rats with surgery, Halofuginone in diet 5 mg/kg dry feed
  post-surgical adhesion formation: able to inhibit post-surgical adhesion formation
[3]
  concentration up to which cells remained viable and retained normal monolayer configuration and morphological appearance: ≤ 2 μg/ml
keloid-derived cells
  production of collagen (collagenase-digestible [3H]proline-labelled proteins): inhibited the production of collagen
  production of non-collagenase digestible proteins: not of non-collagenase digestible proteins
